The test system of series [1] is mouse CCI model. Description: mouse model of chronic neuropathic pain. The note with it: day 7 post-sciatic nerve constriction, adult male mice.
The target of series [2] is 5-HT5A (Homo sapiens, UniProt P47898). Nature of the series: PDSP off-target radioligand binding.
Series [3] deals with T1, mP2Y14R (Mus musculus, UniProt Q9ESG6).
T1 sequence (Q9ESG6 1-338): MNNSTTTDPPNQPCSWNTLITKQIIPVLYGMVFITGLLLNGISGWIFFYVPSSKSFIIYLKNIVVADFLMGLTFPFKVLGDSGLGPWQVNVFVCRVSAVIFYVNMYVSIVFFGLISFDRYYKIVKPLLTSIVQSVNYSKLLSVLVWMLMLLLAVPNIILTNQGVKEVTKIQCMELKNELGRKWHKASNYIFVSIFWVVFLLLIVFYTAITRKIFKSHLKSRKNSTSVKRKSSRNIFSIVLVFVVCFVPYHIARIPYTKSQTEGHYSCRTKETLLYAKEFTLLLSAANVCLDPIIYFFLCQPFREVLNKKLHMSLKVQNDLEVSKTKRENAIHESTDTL
Description: whole-cell fluorescent binding assay at mP2Y14R expressed in HEK-293 cells.

Series [4] addresses T2, hP2Y14R (Homo sapiens, UniProt Q15391).
T2 sequence (Q15391 1-338): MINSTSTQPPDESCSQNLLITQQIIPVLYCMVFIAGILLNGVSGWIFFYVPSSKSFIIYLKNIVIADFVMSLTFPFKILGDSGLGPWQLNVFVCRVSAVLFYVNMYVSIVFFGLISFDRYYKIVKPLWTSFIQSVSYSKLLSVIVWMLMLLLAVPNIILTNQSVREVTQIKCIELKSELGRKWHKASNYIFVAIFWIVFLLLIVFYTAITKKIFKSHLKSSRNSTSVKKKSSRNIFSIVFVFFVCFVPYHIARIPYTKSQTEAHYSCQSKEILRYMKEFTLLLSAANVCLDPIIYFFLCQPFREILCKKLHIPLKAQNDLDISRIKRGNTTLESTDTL
Description: whole-cell fluorescent competitive binding assay. The note with it: up to 100 μM, tracer 52, hP2Y14R-expressing CHO cells.

Series [5] has as its system protease-mediated mouse model of allergic asthma. Description: protease-mediated mouse model of allergic asthma, BAL fluid cells. The settings on record: 10 mg/kg i.p., C57BL/6J mice.
Series [6] has as its target T2, hP2Y14R. Description: fluorescent binding saturation study in whole CHO cells expressing hP2Y14R. The note with it: final concentrations of 53 of 2, 100, 500, and 20,000 nM.
The nature of series [7]: pharmacokinetics of double prodrug 62 p.o. in female CD1 mice. The settings on record: 62 by oral gavage (p.o.).
A short description of series [8]: pharmacokinetics of mono-ester prodrug 63 s.c. in female CD1 mice. The note with it: 10 mg/kg s.c.

In general, pKi refers to the negative decadic logarithm of the Ki, by convention in mol/L.

pKi: −log10 of the molar value.

5-HT5A, sequence (P47898 whole entry, species assumed): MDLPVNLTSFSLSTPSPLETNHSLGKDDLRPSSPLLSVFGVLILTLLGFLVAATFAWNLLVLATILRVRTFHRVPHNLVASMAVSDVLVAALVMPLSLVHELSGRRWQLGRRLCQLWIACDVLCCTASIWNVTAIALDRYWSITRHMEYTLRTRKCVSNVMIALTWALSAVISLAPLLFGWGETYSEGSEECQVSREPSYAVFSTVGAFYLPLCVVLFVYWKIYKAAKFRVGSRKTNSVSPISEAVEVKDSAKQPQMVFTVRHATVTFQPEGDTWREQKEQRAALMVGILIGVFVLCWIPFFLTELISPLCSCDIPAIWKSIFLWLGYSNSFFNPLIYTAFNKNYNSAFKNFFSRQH

Consider `O=C(O)c1cc(-c2ccc(C3(O)C[C@H]4CNC[C@@H]4C3)cc2)c2ccc(-c3ccc(C(F)(F)F)cc3)cc2c1` (racemic) [compound 11, rac-4-(4-((3aR,6aR)-5-Hydroxyoctahydrocyclopenta[c]pyrrol-5-yl)phenyl)-7-(4-(trifluoromethyl)phenyl)-2-naphthoic Acid], for which, in series [1] (i.p. injection), the “reversal of mechano-allodynia (paw withdrawal threshold)” value (“reversal of mechano-allodynia” for short) is listed as “maintained over 3 h”. Moreover, in series [2], the pKi was 5.62. Turning to `O=C(O)c1cc(-c2ccc(C3=C[C@H]4CNC[C@@H]4C3)cc2)c2ccc(-c3ccc(C(F)(F)F)cc3)cc2c1` (racemic) [compound 12, rac-4-(4-((3aR,6aR)-1,2,3,3a,4,6a-Hexahydrocyclopenta[c]-pyrrol-5-yl)phenyl)-7-(4-(trifluoromethyl)phenyl)-2-naphthoic Acid], the “more potent at the mP2Y14R (vs human)” value in series [3] stood at 3 fold.

Consider `O=C(Cc1ccc(C(F)(F)F)cc1)Nc1cccc(-c2nc3cc(Cl)ccc3o2)c1` [4a, reference compound], for which, in series [4], the binding inhibition result is “no binding inhibition”.

On to `O=C(O)c1cc(-c2ccc(C3CCCNCC3)cc2)c2ccc(-c3ccc(C(F)(F)F)cc3)cc2c1` (stereo not drawn) [compound 16, 4-(4-(Azepan-4-yl)phenyl)-7-(4-(trifluoromethyl)phenyl)-2-naphthoic Acid], for which, in series [1] (i.p. injection), the “reversal of mechano-allodynia” value is reported as “provided benefit”. In series [2], this molecule had a pKi of 5.32.

Regarding `CCOC(=O)N1C[C@H]2C[C@@H](C1)[C@@]2(O)c1ccc(-c2cc(C(=O)OCC(=O)N(C)C)cc3cc(-c4ccc(C(F)(F)F)cc4)ccc23)cc1` [compound 50, Ethyl (1R,5S,6r)-6-(4-(3-((2-(Dimethylamino)-2-oxoethoxy)-carbonyl)-6-(4-(trifluoromethyl)phenyl)naphthalen-1-yl)phenyl)-6-hydroxy-3-azabicyclo[3.1.1]heptane-3-carboxylate], the “reversal of mechano-allodynia” value in series [1] (10 μmol/kg, p.o. (oral gavage)) is given as “reversed the mechano-allodynia”. Besides, the “airway eosinophilia (eosinophils in BAL fluid)” value in series [5] was “lack of activity”. In the case of `C[Si]1(C)C2=CC(=[N+]3CCC3)C=CC2=C(c2cc(C(=O)NCCCCCCn3cc(CCCCN4CCC(c5ccc(-c6cc(C(=O)O)cc7cc(-c8ccc(C(F)(F)F)cc8)ccc67)cc5)CC4)nn3)ccc2C(=O)[O-])c2ccc(N3CCC3)cc21` [compound 53], the “specific binding in whole CHO cells expressing the hP2Y14R” value in series [6] is reported as “did not demonstrate potent specific binding”. Consider `CCOC(=O)N1CCC(c2ccc(-c3cc(C(=O)OCC(=O)N(C)C)cc4cc(-c5ccc(C(F)(F)F)cc5)ccc34)cc2)CC1` [compound 62, Ethyl 4-(4-(3-((2-(Dimethylamino)-2-oxoethoxy)carbonyl)-6-(4-(trifluoromethyl)phenyl)naphthalen-1-yl)phenyl)piperidine-1-carboxylate], for which, in series [1] (i.p. injection), the “reversal of mechano-allodynia” value is “provided benefit”. Further, in series [7], the oral bioavailability is 6.9 % F and the peak concentration is on record as ~ 2 μg/mL. For `CN(C)C(=O)COC(=O)c1cc(-c2ccc([C@H]3C[C@H]4C[C@@H]3CN4)cc2)c2ccc(-c3ccc(C(F)(F)F)cc3)cc2c1` [compound 63, reference compound], the “reversal of mechano-allodynia” value in series [1] (10 μmol/kg, p.o. (oral gavage)) is recorded as “fully efficacious within 1 h”. Moreover, the “in vivo cleavage of prodrug to active drug 2b” value in series [8] is recorded as “rapid cleavage of the ester group”. With `CCOC(=O)N1C[C@H]2C[C@@H]1C[C@@H]2c1ccc(-c2cc(C(=O)OCC(=O)N(C)C)cc3cc(-c4ccc(C(F)(F)F)cc4)ccc23)cc1` [compound 64, reference compound], in series [1] (i.p. injection), the “reversal of mechano-allodynia” value is reported as “provided benefit”.

These data come from publication PMC10407959 (Journal of medicinal chemistry, 2023).
